Experimental data from patent US20250312323A1 (Cavion, Inc., priority 2018, published 2025).
“Also recorded” adds a separate entry of the source.

Experiments:
[1] = test system: patients with essential tremor; assay: T-CALM: TETRAS performance subscale, investigator rated
[2] = test system: patients with essential tremor; assay: T-CALM: treatment-emergent adverse events, discontinuations, dosage reductions; assay type: in vivo, human
Procedure: T-CALM employed the following dose titration scheme: Week 1 at 4 mg BID (8 mg/day), Week 2 at 8 mg BID (16 mg/day) and Weeks 3 & 4 at 10 mg BID (20 mg/day). […] Adverse Events were coded using MedDRA V20.0. Only treatment emergent adverse events with an onset date and time after the initiation of study drug until 30 days after discontinuation of drug were reported. For subjects who experience the same coded event more than once, a single event was presented. Adverse events were attributed to a study week based on the onset date, i.e. events that started on or after Visit 1 and prior to Visit 2 were classified as Study Week 1.
Adverse events are characterized by maximum severity, drug-related adverse events, serious adverse events and adverse events leading to discontinuation of study.
Safety procedures involved collection of all TEAEs (treatment-emergent adverse events) coded into the Medical Dictionary for Regulatory Activities (MedDRA) version 20. Adverse events were classified by maximum severity, drug-related adverse events, serious adverse events, and adverse events leading to patient discontinuation.

[3] = Day 15, change from baseline, N = 39
[4] = Day 28, change from baseline, N = 37
[5] = N = 48, inadequate drug supply at Visit 4

CC(C)c1ccc(CC(=O)N[C@H](C)c2ccc(OCC(F)(F)F)cn2)cc1 [CX-8998]
TETRAS-PS Score, subjects with 0 change, n (%) [1, 3]: 2 (5.1%)
TETRAS-PS Score, subjects with >0 to 1 point improvement, n (%) [1, 3]: 3 (7.7%)
TETRAS-PS Score, subjects with >0 to 1 point worsening, n (%) [1, 3]: 2 (5.1%)
TETRAS-PS Score, subjects with >1 to 2.5 point improvement, n (%) [1, 3]: 4 (10.3%)
TETRAS-PS Score, subjects with >1 to 2.5 point worsening, n (%) [1, 3]: 5 (12.8%)
TETRAS-PS Score, subjects with >2.5 to 5 point improvement, n (%) [1, 3]: 10 (25.6%)
TETRAS-PS Score, subjects with >2.5 to 5 point worsening, n (%) [1, 3]: 2 (5.1%)
TETRAS-PS Score, subjects with >5 to 10 point improvement, n (%) [1, 3]: 8 (20.5%)
TETRAS-PS Score, subjects with >5 to 10 point worsening, n (%) [1, 3]: 0
TETRAS-PS Score, subjects with >10 point improvement, n (%) [1, 3]: 3 (7.7%)
TETRAS-PS Score, subjects with >10 point worsening, n (%) [1, 3]: 0
LS mean (±SE) change from baseline in TETRAS-PS scored by investigators (in person), primary endpoint analysis ([1]; Day 28): −4.8±0.80
Subjects with improvement of at least 5 points by TETRAS-PS score, number ([1]; Day 28, N 37): 16
Subjects with improvement of at least 5 points by TETRAS-PS score, percent ([1]; Day 28, N 37): (43.2%)
TETRAS-PS Score, subjects with 0 change, n (%) [1, 4]: 1 (2.6%)
TETRAS-PS Score, subjects with >0 to 1 point improvement, n (%) [1, 4]: 6 (15.4%)
TETRAS-PS Score, subjects with >0 to 1 point worsening, n (%) [1, 4]: 2 (5.1%)
TETRAS-PS Score, subjects with >1 to 2.5 point improvement, n (%) [1, 4]: 5 (12.8%)
TETRAS-PS Score, subjects with >1 to 2.5 point worsening, n (%) [1, 4]: 1 (2.6%)
TETRAS-PS Score, subjects with >2.5 to 5 point improvement, n (%) [1, 4]: 11 (28.2%)
TETRAS-PS Score, subjects with >2.5 to 5 point worsening, n (%) [1, 4]: 1 (2.6%)
TETRAS-PS Score, subjects with >5 to 10 point improvement, n (%) [1, 4]: 8 (20.5%)
TETRAS-PS Score, subjects with >5 to 10 point worsening, n (%) [1, 4]: 0
TETRAS-PS Score, subjects with >10 point improvement, n (%) [1, 4]: 4 (10.3%)
TETRAS-PS Score, subjects with >10 point worsening, n (%) [1, 4]: 0
Discontinuation due to Nervous System Disorders, subjects, percent ([2]; N = 48): (8%)
Discontinuation due to Psychiatric Disorders, subjects, number ([2]; N = 48): 4
Discontinuation due to Psychiatric Disorders, subjects, percent ([2]; N = 48): (8%)
Dosage reduced during study, subjects, percent ([2]; N = 48): (8%)
Dosage reduction due to adverse event, subjects, number ([2]; N = 48): 3
Dosage reduction due to adverse event, subjects, percent ([2]; N = 48): (6%)
Subjects with at least 1 event leading to discontinuation, number ([2]; N = 48): 8
Subjects with at least 1 event leading to discontinuation, percent ([2]; N = 48): (17%)
Dosage reduction due to other reasons, subjects, number [2, 5]: 1
Dosage reduction due to other reasons, subjects, percent [2, 5]: (2%)^3
TEAE Ear and Labyrinth Disorders (system organ class), subjects, number (%) ([2]; Safety Analysis Set, n = 48): 2 (4%)
TEAE Gastrointestinal Disorders (system organ class), subjects, number (%) ([2]; Safety Analysis Set, n = 48): 9 (19%)
TEAE Infections and Infestations (system organ class), subjects, number (%) ([2]; Safety Analysis Set, n = 48): 4 (8%)
TEAE Nervous System Disorders (system organ class), subjects, number (%) ([2]; Safety Analysis Set, n = 48): 20 (42%)
TEAE Psychiatric Disorders (system organ class), subjects, number (%) ([2]; Safety Analysis Set, n = 48): 12 (52%)
Dosage reduction due to TEAEs, patients ([2]; T-CALM): 6%
Serious adverse events (alcohol withdrawal syndrome, major depression, suicidal ideation), deemed unrelated to study drug ([2]; T-CALM): one patient
patients with at least 1 TEAE ([2]; T-CALM): 58%
Discontinuation due to adverse events (TEAEs), patients n (%) ([2]; T-CALM, N=48): 8 (17%)
TEAE Abnormal dreams, n (%) ([2]; T-CALM, n = 48): 2 (4%)
TEAE Disturbance in attention, n (%) ([2]; T-CALM, n = 48): 2 (4%)
TEAE Dizziness, n (%) ([2]; T-CALM, n = 48): 10 (21%)
TEAE Dry mouth, n (%) ([2]; T-CALM, n = 48): 2 (4%)
TEAE Dysgeusia, n (%) ([2]; T-CALM, n = 48): 2 (4%)
TEAE Ear and Labyrinth Disorders, n (%) ([2]; T-CALM, n = 48): 2 (4%)
TEAE Euphoric mood, n (%) ([2]; T-CALM, n = 48): 3 (6%)
TEAE Gastrointestinal Disorders, n (%) ([2]; T-CALM, n = 48): 9 (19%)
TEAE Hallucination, n (%) ([2]; T-CALM, n = 48): 2 (4%)
TEAE Headache, n (%) ([2]; T-CALM, n = 48): 4 (8%)
TEAE Hypesthesia, n (%) ([2]; T-CALM, n = 48): 0
TEAE Infections and Infestations, n (%) ([2]; T-CALM, n = 48): 4 (8%)
TEAE Insomnia, n (%) ([2]; T-CALM, n = 48): 3 (6%)
TEAE Nausea, n (%) ([2]; T-CALM, n = 48): 1 (2%)
TEAE Nervous System Disorders, n (%) ([2]; T-CALM, n = 48): 20 (42%)
TEAE Paraesthesia, n (%) ([2]; T-CALM, n = 48): 2 (4%)
TEAE Somnolence, n (%) ([2]; T-CALM, n = 48): 1 (2%)
TEAE Tinnitus, n (%) ([2]; T-CALM, n = 48): 2 (4%)
TEAE Urinary Tract Infection, n (%) ([2]; T-CALM, n = 48): 2 (4%)
TEAE Vomiting, n (%) ([2]; T-CALM, n = 48): 0
safety and tolerability in ET patients ([2]; T-CALM, up to 10 mg BID): safe and well tolerated
Adverse Event (MedDRA Preferred Term) leading to dosage reduction ([2]; individual subjects 26-001 (10 to 8 mg BID), 31-023 (8 to 4 mg BID), 33-004 (4 to 2 mg BID), one line each, considered related to study drug): Anxiety; also recorded: Electrocardiogram; also recorded: Headache
AE Any Event, percent of subjects ([2]; onset in study week 1): (40%)
AE Central Nervous System Disorders, number of subjects ([2]; onset in study week 1): 16
AE Central Nervous System Disorders, percent of subjects ([2]; onset in study week 1): (33%)
AE Ear and Labyrinth Disorders, number of subjects ([2]; onset in study week 1): 2
AE Ear and Labyrinth Disorders, percent of subjects ([2]; onset in study week 1): (4%)
AE Eye Disorders, number of subjects ([2]; onset in study week 1): 1
AE Eye Disorders, percent of subjects ([2]; onset in study week 1): (2%)
AE Gastrointestinal Disorders, number of subjects ([2]; onset in study week 1): 7
AE Gastrointestinal Disorders, percent of subjects ([2]; onset in study week 1): (15%)
AE Infections and Infestations, number of subjects ([2]; onset in study week 1): 0
AE Injury, Poisoning and Procedural Complications, percent of subjects ([2]; onset in study week 1): (2%)
AE Investigations, number of subjects ([2]; onset in study week 1): 1
AE Investigations, percent of subjects ([2]; onset in study week 1): (2%)
AE Metabolism and Nutrition Disorders, number of subjects ([2]; onset in study week 1): 1
AE Metabolism and Nutrition Disorders, percent of subjects ([2]; onset in study week 1): (2%)
